Laboratory results: patent publication US11149023B2, “Substituted triazole derivatives and uses thereof” (Bayer Pharma Aktiengesellschaft, priority 2017, dated 2021)

Columns and labels:
human V1a receptor = human V1a receptor (Homo sapiens (Human), UniProt P37288); assay: Cellular in vitro assay for determining vasopressin receptor activity (V1a, aequorin luminescence); assay type: cell-based; settings: for IC50: CHO cell line transfected with human V1a receptor, [Arg8]-vasopressin at EC50 concentration, read-out: IC50 hV1a; for ratio IC50 hV2/hV1a: selectivity, IC50 hV2 divided by IC50 hV1a
Protocol: (§1) B-1. Cellular In Vitro Assay for Determining Vasopressin Receptor Activity
(§2) The identification of agonists and antagonists of the V1a and V2 vasopressin receptors from humans, rats and dogs as well as the quantification of the activity of the compounds of the invention is carried out using recombinant cell lines. These cell lines originally derive from a hamster's ovary epithelial cell (Chinese Hamster Ovary, CHO K1, ATCC: American Type Culture Collection, Manassas, Va. 20108, USA). The test cell lines constitutively express the human, rat or dog V1a or V2 receptors. In case of the Gαq-coupled V1a receptors, cells are also stably transfected with a modified form of the calcium-sensitive photoproteins aequorin (human and rat V1a) or obe-lin (dog V1a), which, after reconstitution with the cofactor coelenterazine, emit light when there are increases in free calcium concentrations [Rizzuto R, Simpson A W, Brini M, Pozzan T, Nature 358, 325-327 (1992); Illarionov B A, Bondar V S, Illarionova V A, Vysotski E S, Gene 153 (2), 273-274 (1995)]. The resulting vasopressin receptor cells react to stimulation of the recombinantly expressed Via receptors by intracellular release of calcium ions, which can be quantified by the resulting photoprotein luminescence. The Gs-coupled V2 receptors are stably transfected into cell lines expressing the gene for firefly luciferase under control of a CRE-responsible promoter. Activation of V2 receptors induces the activation of the CRE-responsive promoter via cAMP increase, thereby inducing the expression of firefly luciferase. The light emitted by photoproteins of V1a cell lines as well as the light emitted by firefly luciferase of V2 cell lines corresponds to the activation or inhibition of the respective vasopressin receptor. The bioluminescence of the cell lines is detected using a suitable luminometer [Milligan G, Marshall F, Rees S, Trends in Pharmacological Sciences 17, 235-237 (1996)].
Vasopressin V1a Receptor Cell Lines:
On the day before the assay, the cells are plated out in culture medium (DMEM/F12, 2% FCS, 2 mM glutamine, 10 mM HEPES, 5 μg/ml coelenterazine) in 384-well microtiter plates and kept in a cell incubator (96% humidity, 5% v/v CO2, 37° C.). On the day of the assay, test compounds in various concentrations are placed for 10 minutes in the wells of the microtiter plate before the agonist [Arg^8]-vasopressin at EC50 concentration is added. The resulting light signal is measured immediately in a luminometer.
(§3) Table 1A below lists individual IC50 values for the compounds of the invention (including racemic mixtures as well as separated enantiomers) that were obtained from cell lines transfected with the human Via or V2 receptor: […]

human V2 receptor = human V2 receptor (Homo sapiens (Human), UniProt P30518); assay: Cellular in vitro assay for determining vasopressin receptor activity (V2, CRE-luciferase); assay type: cell-based; settings: CHO cell line transfected with human V2 receptor; [Arg8]-vasopressin at EC50 concentration; read-out: IC50 hV2
Protocol: as §1, §2
Vasopressin V2 Receptor Cell Lines:
On the day before the assay, the cells are plated out in culture medium (DMEM/F12, 2% FCS, 2 mM glutamine, 10 mM HEPES) in 384-well microtiter plates and kept in a cell incubator (96% humidity, 5% v/v CO2, 37° C.). On the day of the assay, test compounds in various concentrations and the agonist [Arg^8]-vasopressin at EC50 concentration are added together to the wells, and plates are incubated for 3 hours in a cell incubator. Upon addition of the cell lysis reagent Triton™ and the substrate luciferin, luminescence of firefly luciferase is measured in a luminometer.
as §3

Chain of human V2 receptor (P30518 whole entry): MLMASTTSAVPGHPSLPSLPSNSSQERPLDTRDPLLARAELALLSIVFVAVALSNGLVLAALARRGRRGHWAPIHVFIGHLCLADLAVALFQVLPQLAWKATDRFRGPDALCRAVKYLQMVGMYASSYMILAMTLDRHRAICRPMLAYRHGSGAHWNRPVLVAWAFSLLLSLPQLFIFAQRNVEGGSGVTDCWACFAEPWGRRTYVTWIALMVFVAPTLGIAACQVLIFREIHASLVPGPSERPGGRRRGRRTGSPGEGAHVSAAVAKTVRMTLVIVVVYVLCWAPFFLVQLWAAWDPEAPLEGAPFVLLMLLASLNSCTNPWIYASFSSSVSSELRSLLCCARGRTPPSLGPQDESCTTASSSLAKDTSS
Chain of human V1a receptor (P37288 whole entry): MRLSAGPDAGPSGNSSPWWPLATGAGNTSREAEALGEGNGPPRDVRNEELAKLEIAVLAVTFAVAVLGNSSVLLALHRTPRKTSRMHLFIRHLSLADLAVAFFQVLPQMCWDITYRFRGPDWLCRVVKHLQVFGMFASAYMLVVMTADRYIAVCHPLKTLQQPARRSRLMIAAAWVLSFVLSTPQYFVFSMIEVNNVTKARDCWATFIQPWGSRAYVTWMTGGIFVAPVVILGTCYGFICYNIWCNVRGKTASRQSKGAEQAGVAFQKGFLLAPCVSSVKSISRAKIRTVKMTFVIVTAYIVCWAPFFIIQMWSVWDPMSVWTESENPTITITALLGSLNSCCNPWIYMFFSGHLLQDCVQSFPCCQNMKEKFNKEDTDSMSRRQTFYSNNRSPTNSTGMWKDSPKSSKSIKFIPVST

SMILES	IC50 (human V1a receptor)	ratio IC50 hV2/hV1a (human V1a receptor)	IC50 (human V2 receptor)
O=C(NC(Cn1c(-c2ccc(Cl)cc2)nn(Cc2ncn(-c3ncccc3Cl)n2)c1=O)C(F)(F)F)C1CC1 (racemic) [Example 14, N-{3-[3-(4-Chlorophenyl)-1-{[1-(3-chloropyridin-2-yl)-1H-1,2,4-triazol-3-yl]methyl}-5-oxo-1,5-dihydro-4H-1,2,4-triazol-4-yl]-1,1,1-trifluoropropan-2-yl}cyclopropanecarboxamide]	12.4 nM	17.7	220 nM
CC(=O)OC(C)(C)C(=O)NC(Cn1c(-c2ccc(Cl)cc2)nn(Cc2ncn(-c3ncccc3Cl)n2)c1=O)C(F)(F)F (racemic) [Example 16, 1-({3-[3-(4-Chlorophenyl)-1-{[1-(3-chloropyridin-2-yl)-1H-1,2,4-triazol-3-yl]methyl}-5-oxo-1,5-dihydro-4H-1,2,4-triazol-4-yl]-1,1,1-trifluoropropan-2-yl}amino)-2-methyl-1-oxopropan-2-yl acetate]	5.05 nM	27.7	140 nM
CC(C)(O)C(=O)NC(Cn1c(-c2ccc(Cl)cc2)nn(Cc2ncn(-c3ncccc3Cl)n2)c1=O)C(F)(F)F (racemic) [Example 17, N-{3-[3-(4-Chlorophenyl)-1-{[1-(3-chloropyridin-2-yl)-1H-1,2,4-triazol-3-yl]methyl}-5-oxo-1,5-dihydro-4H-1,2,4-triazol-4-yl]-1,1,1-trifluoropropan-2-yl}-2-hydroxy-2-methylpropanamide]	9.55 nM	29.3	280 nM
O=C(CN1CCOC1=O)NC(Cn1c(-c2ccc(Cl)cc2)nn(Cc2ncn(-c3ncccc3Cl)n2)c1=O)C(F)(F)F (racemic) [Example 20, N-{3-[3-(4-Chlorophenyl)-1-{[1-(3-chloropyridin-2-yl)-1H-1,2,4-triazol-3-yl]methyl}-5-oxo-1,5-dihydro-4H-1,2,4-triazol-4-yl]-1,1,1-trifluoropropan-2-yl}-2-(2-oxo-1,3-oxazolidin-3-yl)acetamide]	8.9 nM	58.4	520 nM
N#CC1(C(=O)NC(Cn2c(-c3ccc(Cl)cc3)nn(Cc3ncn(-c4ncccc4Cl)n3)c2=O)C(F)(F)F)CC1 (racemic) [Example 21]	5.95 nM	47.5	283 nM
O=C(NC(Cn1c(-c2ccc(Cl)cc2)nn(Cc2ncn(-c3ncccc3Cl)n2)c1=O)C(F)(F)F)C1(O)CC1 (racemic) [Example 22, N-{3-[3-(4-Chlorophenyl)-1-{[1-(3-chloropyridin-2-yl)-1H-1,2,4-triazol-3-yl]methyl}-5-oxo-1,5-dihydro-4H-1,2,4-triazol-4-yl]-1,1,1-trifluoropropan-2-yl}-1-hydroxycyclopropanecarboxamide]	4.05 nM	37.0	150 nM
CC(C)(C)OC(=O)NC1(C(=O)NC(Cn2c(-c3ccc(Cl)cc3)nn(Cc3ncn(-c4ncccc4Cl)n3)c2=O)C(F)(F)F)CC1 (racemic) [Example 26, tert-Butyl [1-({3-[3-(4-chlorophenyl)-1-{[1-(3-chloropyridin-2-yl)-1H-1,2,4-triazol-3-yl]methyl}-5-oxo-1,5-dihydro-4H-1,2,4-triazol-4-yl]-1,1,1-trifluoropropan-2-yl}carbamoyl)cyclopropyl]-carbamate]	9.15 nM	9.0	82.5 nM
NC1(C(=O)NC(Cn2c(-c3ccc(Cl)cc3)nn(Cc3ncn(-c4ncccc4Cl)n3)c2=O)C(F)(F)F)CC1 (racemic) [Example 27, 1-Amino-N-{3-[3-(4-chlorophenyl)-1-{[1-(3-chloropyridin-2-yl)-1H-1,2,4-triazol-3-yl]methyl}-5-oxo-1,5-dihydro-4H-1,2,4-triazol-4-yl]-1,1,1-trifluoropropan-2-yl}cyclopropanecarboxamide]	215 nM	8.8	1900 nM
NC1(C(=O)NC(Cn2c(-c3ccc(Cl)cc3)nn(Cc3ncn(-c4ncccc4Cl)n3)c2=O)C(F)(F)F)CCC1 (racemic) [Example 29, 1-Amino-N-{3-[3-(4-chlorophenyl)-1-{[1-(3-chloropyridin-2-yl)-1H-1,2,4-triazol-3-yl]methyl}-5-oxo-1,5-dihydro-4H-1,2,4-triazol-4-yl]-1,1,1-trifluoropropan-2-yl}cyclobutanecarboxamide]	5.65 nM	36.0	203 nM

These reach a lower IC50 (human V1a receptor). Values come first.

IC50 (human V1a receptor)	ratio IC50 hV2/hV1a (human V1a receptor)	IC50 (human V2 receptor)	SMILES
2.05 nM	38.3	78.5 nM	O=C(NC(Cn1c(-c2ccc(Cl)cc2)nn(Cc2ncn(-c3ncccc3Cl)n2)c1=O)C(F)(F)F)C1CC(F)(F)C1 (racemic) [Example 15, N-{3-[3-(4-Chlorophenyl)-1-{[1-(3-chloropyridin-2-yl)-1H-1,2,4-triazol-3-yl]methyl}-5-oxo-1,5-dihydro-4H-1,2,4-triazol-4-yl]-1,1,1-trifluoropropan-2-yl}-3,3-difluorocyclobutanecarboxamide]
2.2 nM	46.1	102 nM	CS(=O)(=O)NCC(=O)NC(Cn1c(-c2ccc(Cl)cc2)nn(Cc2ncn(-c3ncccc3Cl)n2)c1=O)C(F)(F)F (racemic) [Example 19, N-{3-[3-(4-Chlorophenyl)-1-{[1-(3-chloropyridin-2-yl)-1H-1,2,4-triazol-3-yl]methyl}-5-oxo-1,5-dihydro-4H-1,2,4-triazol-4-yl]-1,1,1-trifluoropropan-2-yl}-N^2-(methylsulfonyl)glycinamide]
1.75 nM	98.6	172 nM	O=C(/C=C/C(F)(F)F)NC(Cn1c(-c2ccc(Cl)cc2)nn(Cc2ncn(-c3ncccc3Cl)n2)c1=O)C(F)(F)F (racemic) [Example 25, (2E)-N-{3-[3-(4-Chlorophenyl)-1-{[1-(3-chloropyridin-2-yl)-1H-1,2,4-triazol-3-yl]methyl}-5-oxo-1,5-dihydro-4H-1,2,4-triazol-4-yl]-1,1,1-trifluoropropan-2-yl}-4,4,4-trifluorobut-2-enamide]
3.4 nM	32.1	109 nM	O=C(CC(F)=C(F)F)NC(Cn1c(-c2ccc(Cl)cc2)nn(Cc2ncn(-c3ncccc3Cl)n2)c1=O)C(F)(F)F (racemic) [Example 31, N-{3-[3-(4-Chlorophenyl)-1-{[1-(3-chloropyridin-2-yl)-1H-1,2,4-triazol-3-yl]methyl}-5-oxo-1,5-dihydro-4H-1,2,4-triazol-4-yl]-1,1,1-trifluoropropan-2-yl}-3,4,4-trifluorobut-3-enamide]
1.17 nM	67.0	78.2 nM	O=C(CCC(F)(F)F)NC(Cn1c(-c2ccc(Cl)cc2)nn(Cc2ncn(-c3ncccc3Cl)n2)c1=O)C(F)(F)F (racemic) [Example 32, N-{3-[3-(4-Chlorophenyl)-1-{[1-(3-chloropyridin-2-yl)-1H-1,2,4-triazol-3-yl]methyl}-5-oxo-1,5-dihydro-4H-1,2,4-triazol-4-yl]-1,1,1-trifluoropropan-2-yl}-4,4,4-trifluorobutanamide]
1.7 nM	28.2	48 nM	O=C(NC(Cn1c(-c2ccc(Cl)cc2)nn(Cc2ncn(-c3ncccc3Cl)n2)c1=O)C(F)(F)F)C1CS(=O)(=O)C1 (racemic) [Example 38, N-{3-[3-(4-Chlorophenyl)-1-{[1-(3-chloropyridin-2-yl)-1H-1,2,4-triazol-3-yl]methyl}-5-oxo-1,5-dihydro-4H-1,2,4-triazol-4-yl]-1,1,1-trifluoropropan-2-yl}thietane-3-carboxamide 1,1-dioxide]
